Data from ChEMBL document CHEMBL3045980, “Chemistry of insect antifeedants from Azadirachta indica (part 11): Characterisation and structure activity relationships of some novel rearranged azadirachtins” (1991).

Columns and labels:
Spodoptera littoralis [1] = assay: Antifeedant activity against final stadium larval stage of Spodoptera littoralis in compound pretreated glass fibre disks assessed as mass of disks eaten at 10 ppm by choice bioassay; type: functional
Spodoptera littoralis [2] = assay: Antifeedant activity against final stadium larval stage of Spodoptera littoralis in compound pretreated glass fibre disks assessed as mass of disks eaten at 1 ppm by choice bioassay; type: functional

For `C/C=C(\C)C(=O)O[C@H]1C[C@@H](OC(C)=O)[C@@]2(C(=O)OC)CO[C@H]3[C@H]4O[C@]5(C)[C@H](C6=CCOC6=O)C[C@H](O)[C@]5(O)[C@@]4(C)[C@H]4[C@]1(CO[C@]4(O)C(=O)OC)[C@@H]32`, the AFI (Spodoptera littoralis [1]) was 64% and the AFI (Spodoptera littoralis [2]) was 41%.
Compound `C/C=C(\C)C(=O)O[C@H]1C[C@@H](O)[C@@]23CO[C@@H]4[C@@H](O)[C@]5(C)[C@@H]([C@]1(COC2=O)[C@@H]43)[C@](O)(C(=O)OC)O[C@@]51[C@H]2C[C@H]3[C@]4(C=CO[C@H]4O2)O[C@]31C` has an AFI (Spodoptera littoralis [1]) of 16% and an AFI (Spodoptera littoralis [2]) of 22%.
`C/C=C(\C)C(=O)O[C@H]1C[C@@H](OC(C)=O)[C@@]2(C(=O)OC)CO[C@H]3[C@@H](O)[C@@](C)([C@]45O[C@@]4(C)[C@H]4C[C@@H]5O[C@@H]5OCC[C@@]54O)[C@@H]4[C@@](OC)(C(=O)OC)OC[C@@]14[C@@H]32` was tested, and the AFI (Spodoptera littoralis [1]) was 100% and the AFI (Spodoptera littoralis [2]) was 100%.
Compound `CCC(C)C(=O)O[C@H]1C[C@@H](OC(C)=O)[C@@]2(C(=O)OC)CO[C@H]3[C@@H](O)[C@@](C)([C@]45O[C@@]4(C)[C@H]4C[C@@H]5O[C@@H]5OCC[C@@]54O)[C@@H]4[C@@](OC)(C(=O)OC)OC[C@@]14[C@@H]32` (some centres undefined) has an AFI (Spodoptera littoralis [1]) of 100% and an AFI (Spodoptera littoralis [2]) of 98%.
Work on `C/C=C(\C)C(=O)O[C@H]1C[C@@H](OC(C)=O)[C@@]2(C(=O)OC)CO[C@H]3C(=O)[C@@](C)([C@]45O[C@@]4(C)[C@H]4C[C@@H]5O[C@@H]5OCC[C@@]54O)[C@@H]4[C@@](OC)(C(=O)OC)OC[C@@]14[C@@H]32` yielded an AFI (Spodoptera littoralis [1]) of 100% and an AFI (Spodoptera littoralis [2]) of 26%.
Compound `C/C=C(\C)C(=O)O[C@H]1C[C@@H](OC(C)=O)[C@@]2(C(=O)OC)CO[C@@H]3[C@@H]2[C@]12CO[C@](OC)(C(=O)OC)[C@H]2[C@](C)([C@]12O[C@@]1(C)[C@H]1C[C@@H]2O[C@@H]2OCC[C@@]21O)[C@H]3O` has an AFI (Spodoptera littoralis [1]) of 46% and an AFI (Spodoptera littoralis [2]) of 35%.
Compound `C/C=C(\C)C(=O)O[C@H]1C[C@@H](OC(C)=O)[C@@]2(C(=O)OC)CO[C@H]3C(=O)[C@@](C)([C@]45O[C@@]4(C)[C@H]4C[C@@H]5OC(=O)OCCC4=O)[C@@H]4[C@@](OC)(C(=O)OC)OC[C@@]14[C@@H]32` has an AFI (Spodoptera littoralis [1]) of 63% and an AFI (Spodoptera littoralis [2]) of 61%.
With `C/C=C(\C)C(=O)O[C@H]1C[C@@H](OC(C)=O)[C@@]2(C(=O)OC)CO[C@H]3[C@@H](O)[C@@](C)([C@]45O[C@@]4(C)[C@H]4C[C@@H]5O[C@@H]5OCC[C@@]54OC)[C@@H]4[C@@](OC)(C(=O)OC)OC[C@@]14[C@@H]32` the AFI (Spodoptera littoralis [1]) was 95% and the AFI (Spodoptera littoralis [2]) was 66%.
With `C/C=C(\C)C(=O)O[C@H]1C[C@@H](OC(C)=O)[C@@]2(C(=O)OC)CO[C@H]3C(=O)[C@@](C)([C@]45O[C@@]4(C)[C@H]4C[C@@H]5O[C@@H]5OCC[C@@]54OC)[C@@H]4[C@@](OC)(C(=O)OC)OC[C@@]14[C@@H]32` the AFI (Spodoptera littoralis [1]) was 100% and the AFI (Spodoptera littoralis [2]) was 29%.
`C/C=C(\C)C(=O)O[C@H]1C[C@@H](OC(C)=O)[C@@]2(C(=O)OC)CO[C@@H]3[C@@H]2[C@]12CO[C@](OC)(C(=O)OC)[C@H]2[C@@]1(C)[C@@]32O[C@H]3C[C@@H]([C@@]4(OC)CCO[C@@H]4OC)[C@@](C)(O2)[C@]31O` gave an AFI (Spodoptera littoralis [1]) of 31% and an AFI (Spodoptera littoralis [2]) of 33%.
With `C/C=C(\C)C(=O)O[C@H]1C[C@@H](OC(C)=O)[C@@]2(C(=O)OC)CO[C@H]3C(=O)[C@@](C)([C@]45O[C@@]4(C)[C@H]4C[C@@H]5O[C@@H]5OC=C[C@@]54O)[C@H]4[C@]1(CO[C@]4(O)C(=O)OC)[C@@H]32` [7-KETOAZADIRACHTIN] the AFI (Spodoptera littoralis [1]) was 23% and the AFI (Spodoptera littoralis [2]) was 21%.
Compound `C/C=C(\C)C(=O)O[C@H]1C[C@@H](OC(C)=O)[C@@]2(C(=O)OC)CO[C@H]3[C@@H](O)[C@@](C)([C@]45O[C@@]4(C)[C@@H]4C[C@H]5O[C@@H]5OC=C[C@@]54O)[C@H]4[C@]1(CO[C@]4(O)C(=O)OC)[C@@H]32` [AZADIRACHTIN A] has an AFI (Spodoptera littoralis [1]) of 100% and an AFI (Spodoptera littoralis [2]) of 99%.
